# Laboratory results: PubChem BioAssay (NCI)
# Several values for one entry are separate records, joined by “and”; a condition that tells them apart may be missing. Identical values can stand only once.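 GI50: concentration for 50% inhibition of growth. TGI is the concentration that stops growth completely.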
# Experiments:
# Assay in all cases: NCI anticancer screen, dose series, 384-well format
# [1] = test system: NCI-H522 lung
# [2] = test system: KM12 colon
# [3] = test system: TK-10 renal
# [4] = test system: 786-0 renal
# [5] = test system: NCI-H460 NSCLC
# [6] = test system: U251 glioblastoma
# [7] = test system: NCI-H322M lung
# [8] = test system: M14 melanoma
# [9] = test system: SK-MEL-5 melanoma
# [10] = test system: HOP-62 NSCLC
# [11] = test system: ACHN renal
# [12] = test system: K-562 leukemia
# [13] = test system: SW-620 colon
# [14] = test system: SNB-75 CNS
# [15] = test system: A549 NSCLC
# [16] = test system: SK-MEL-28 melanoma
# [17] = test system: SF-295 CNS
# [18] = test system: OVCAR-5 ovarian
# [19] = test system: HOP-92 NSCLC
# [20] = test system: EKVX NSCLC
# [21] = test system: HCT-15 colon
# [22] = test system: COLO 205 colon
# [23] = test system: OVCAR-3 ovarian
# [24] = test system: T-47D breast
# [25] = test system: HCT-116 colon
# [26] = test system: MDA-MB-435 melanoma
# [27] = test system: HCC-2998 colon
# [28] = test system: RPMI-8226 leukemia
# [29] = test system: SNB-19 CNS
# [30] = test system: MDA-MB-468 breast
# [31] = test system: MALME-3M melanoma
structure (smiles),measurement,setting,value
O=S(=O)(NCCNC/C=C/c1ccc(Br)cc1)c1cccc2cnccc12,GI50,[1],12.1 µM and 13.7 µM
same,TGI,[1],24.6 µM and 26.6 µM
same,GI50,[2],4.08 µM and 6.28 µM
same,TGI,[2],19 µM and 18.3 µM
same,GI50,[3],10.4 µM and 11.3 µM
same,TGI,[3],22.2 µM and 23.5 µM
same,GI50,[4],7.52 µM and 11.2 µM
same,TGI,[4],20.1 µM and 23.3 µM
same,GI50,[5],4.63 µM and 4.23 µM
same,TGI,[5],15.9 µM and 14.5 µM
same,GI50,[6],12.3 µM and 12.5 µM
same,TGI,[6],24.9 µM and 25.2 µM
same,GI50,[7],10.2 µM and 10.7 µM
same,TGI,[7],21.9 µM and 22.6 µM
same,TGI,[8],3.48 µM and 18.4 µM
same,GI50,[9],2.89 µM and 3.31 µM
same,TGI,[9],10.1 µM and 12.7 µM
same,GI50,[10],11.8 µM and 14.2 µM
same,TGI,[10],24.2 µM and 27.3 µM
same,GI50,[11],11.7 µM and 13.5 µM
same,TGI,[11],24 µM and 26.4 µM
same,GI50,[12],1.88 µM and 3.3 µM
same,TGI,[12],3.88 µM and 10.6 µM
same,GI50,[13],14 µM and 14.8 µM
same,TGI,[13],27.1 µM and 28.2 µM
same,GI50,[14],10.3 µM and 10.8 µM
same,TGI,[14],22 µM and 22.7 µM
same,GI50,[15],14 µM
same,TGI,[15],27.1 µM
same,GI50,[16],1.88 µM and 4.09 µM
same,TGI,[16],15.6 µM and 14 µM
same,GI50,[17],15.4 µM and 14.7 µM
same,TGI,[17],28.8 µM and 27.9 µM
same,GI50,[18],12.7 µM
same,TGI,[18],25.4 µM
same,GI50,[19],10.7 µM and 10.8 µM
same,TGI,[19],22.6 µM and 22.7 µM
same,GI50,[20],6.07 µM and 10 µM
same,TGI,[20],18.9 µM and 21.7 µM
same,GI50,[21],13.2 µM and 10.1 µM
same,TGI,[21],26.1 µM and 21.9 µM
same,TGI,[22],2.6 µM and 16.1 µM
same,GI50,[23],11.3 µM and 14.7 µM
same,TGI,[23],23.4 µM and 28 µM
same,GI50,[24],2.78 µM and 4.36 µM
same,TGI,[24],13.3 µM and 16.8 µM
same,GI50,[25],5.55 µM and 5.73 µM
same,TGI,[25],17.9 µM and 17.3 µM
same,GI50,[26],13 µM and 13.2 µM
same,TGI,[26],25.7 µM and 26 µM
same,GI50,[27],2.15 µM and 2.09 µM
same,TGI,[27],3.82 µM and 3.91 µM
same,GI50,[28],0.815 µM and 3.15 µM
same,TGI,[28],5.43 µM and 11.4 µM
same,GI50,[29],17 µM and 16.1 µM
same,TGI,[29],30.8 µM and 29.7 µM
same,GI50,[30],3.44 µM and 3.33 µM
same,TGI,[30],9.73 µM and 12.7 µM
same,GI50,[31],0.391 µM and 2.09 µM
